Reference: article PMC11513923, “Discovery of ZLC491 as a Potent, Selective, and Orally Bioavailable CDK12/13 PROTAC Degrader” (Journal of Medicinal Chemistry, 2024)

Legend:
[1] = molecular target: T1, CDK13 (Homo sapiens, UniProt Q14004); assay: CDK13 degradation in MDA-MB-231 cells by immunoblotting; type: cell-based; settings: 0.3 μM; for Protein Degradation (%DMSO control, 0.3 μM) CDK13: MDA-MB-231 cells, 15 h, immunoblotting, normalized against α-tubulin; for Degradation rates of CDK13 at 0.3 μM: supplementary CSV;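 on Protein Degradation (%DMSO control, 0.3 μM) CDK13: percent of CDK13 protein degraded relative to DMSO control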
T1 construct: Immunoblotting of CDK12 and CDK13 in MDA-MB-231 cells treated with increasing concentrations of ZLC491 for 15 h; endogenous in cells; host or cells: MDA-MB-231
Procedure: (§1) The degradation efficiency of the new molecules was assessed by immunoblotting after treatment with the compounds at 0.3 μM in MD-MBA-231 cells for 15 h.
(§2) To further characterize the compound, we determined the half-degradation concentration (DC50) values of ZLC491 in MDA-MB-231 cells. […] We also treated MDA-MB-231 cells with 1 μM ZLC491 at various time points.
(§3) (A) Immunoblotting of CDK12 and CDK13 in MDA-MB-231 cells treated with increasing concentrations of ZLC491 for 15 h (left). Percent remaining CDK12 and CDK13 proteins were plotted for DC50 determination (right). Protein levels were quantified using ImageJ and normalized to corresponding α-tubulin, then plotted using Graphpad Prism 8.0. The data were representative of three independent experiments; (B) immunoblotting of CDK12 and CDK13 proteins in MDA-MB-231 cells treated with ZLC491 for various time points; immunoblotting of CDK12 and CDK13 in HCC38 (C) and MDA-MB-436 (D) cells treated with increasing concentrations of ZLC491 for 15 h. α-Tubulin was used as a loading control. TEXT PRINTED IN THE PICTURE: (A) ZLC491: MDA-MB-231: CDK12 DC50 = 0.032μM; MDA-MB-231: CDK13 DC50 = 0.028μM DOUBTS OF THE COPYIST ABOUT THIS PICTURE: ZLC491, CDK12 DC50: 0.032 read from small print, the digits 3 and 2 are uncertain / ZLC491, CDK13 DC50: 0.028 read from small print, the last digit may be 8, 6 or 3
(§4) Generally, the tested cells were washed by ice-cold PBS buffer (Gibco) and lysed with an SDS lysis buffer (62.5 mM Tris, 2% w/v SDS, 10 glycerol, 50 mM DTT, 0.01% w/v bromophenol blue) on ice, after which the protein lysate samples were collected to 1.5 mL microcentrifuge tubes and treated with ultrasonic for 10 s, following with a 100 °C incubation for 10 min and a 4 °C centrifugation of 12000 rpm for 10 min. An equal amount of protein was loaded to 4–8% Bis-Tris gels and underwent an SDS-PAGE electrophoresis at 55V for 30 min and 95V for 90 min. Proteins on gels were then transferred to a polyvinylidene difluoride (PVDF) membrane (Bio-Rad) with a wet electro transfer system (Bio-Rad). The PVDF membrane was cut into bands and incubated in a blocking reagent (5% defatted milk powder dissolved in TBST) at room temperature for 1–2 h. Incubate membrane and primary antibody (at the appropriate dilution and diluent as recommended in the product webpage) at 4 °C for 12–14 h, followed with three times washes by TBST. The washed membranes were incubated in a secondary antibody solution (HRP-linked antirabbit IgG or antimouse IgG (CST), 1:2000 diluted into TBST) at room temperature for 2 h. Membranes were photographed in Amersham Imager 800 system using StarSignal plus regent (GenStar) or Omni-ECL reagent (EpiZyme). Compounds MG132, MLN4924, Bafilomycin A1 and pomalidomide were purchased from MedChemExpress (MCE) LLC.

[2] = molecular target: CDK12 (Homo sapiens, UniProt Q9NYV4); assay: CDK12 degradation in MDA-MB-231 cells by immunoblotting; type: cell-based; design: Immunoblotting of CDK12 and CDK13 in MDA-MB-231 cells treated with increasing concentrations of ZLC491 for 15 h; endogenous in cells; host or cells: MDA-MB-231; settings: 0.3 μM; for Protein Degradation (%DMSO control, 0.3 μM) CDK12: MDA-MB-231 cells, 15 h, immunoblotting, normalized against α-tubulin; for Degradation rates of CDK12 at 0.3 μM: supplementary CSV
Procedure: as §1, §2, §3, §4

Chain of CDK12 (Q9NYV4 whole entry): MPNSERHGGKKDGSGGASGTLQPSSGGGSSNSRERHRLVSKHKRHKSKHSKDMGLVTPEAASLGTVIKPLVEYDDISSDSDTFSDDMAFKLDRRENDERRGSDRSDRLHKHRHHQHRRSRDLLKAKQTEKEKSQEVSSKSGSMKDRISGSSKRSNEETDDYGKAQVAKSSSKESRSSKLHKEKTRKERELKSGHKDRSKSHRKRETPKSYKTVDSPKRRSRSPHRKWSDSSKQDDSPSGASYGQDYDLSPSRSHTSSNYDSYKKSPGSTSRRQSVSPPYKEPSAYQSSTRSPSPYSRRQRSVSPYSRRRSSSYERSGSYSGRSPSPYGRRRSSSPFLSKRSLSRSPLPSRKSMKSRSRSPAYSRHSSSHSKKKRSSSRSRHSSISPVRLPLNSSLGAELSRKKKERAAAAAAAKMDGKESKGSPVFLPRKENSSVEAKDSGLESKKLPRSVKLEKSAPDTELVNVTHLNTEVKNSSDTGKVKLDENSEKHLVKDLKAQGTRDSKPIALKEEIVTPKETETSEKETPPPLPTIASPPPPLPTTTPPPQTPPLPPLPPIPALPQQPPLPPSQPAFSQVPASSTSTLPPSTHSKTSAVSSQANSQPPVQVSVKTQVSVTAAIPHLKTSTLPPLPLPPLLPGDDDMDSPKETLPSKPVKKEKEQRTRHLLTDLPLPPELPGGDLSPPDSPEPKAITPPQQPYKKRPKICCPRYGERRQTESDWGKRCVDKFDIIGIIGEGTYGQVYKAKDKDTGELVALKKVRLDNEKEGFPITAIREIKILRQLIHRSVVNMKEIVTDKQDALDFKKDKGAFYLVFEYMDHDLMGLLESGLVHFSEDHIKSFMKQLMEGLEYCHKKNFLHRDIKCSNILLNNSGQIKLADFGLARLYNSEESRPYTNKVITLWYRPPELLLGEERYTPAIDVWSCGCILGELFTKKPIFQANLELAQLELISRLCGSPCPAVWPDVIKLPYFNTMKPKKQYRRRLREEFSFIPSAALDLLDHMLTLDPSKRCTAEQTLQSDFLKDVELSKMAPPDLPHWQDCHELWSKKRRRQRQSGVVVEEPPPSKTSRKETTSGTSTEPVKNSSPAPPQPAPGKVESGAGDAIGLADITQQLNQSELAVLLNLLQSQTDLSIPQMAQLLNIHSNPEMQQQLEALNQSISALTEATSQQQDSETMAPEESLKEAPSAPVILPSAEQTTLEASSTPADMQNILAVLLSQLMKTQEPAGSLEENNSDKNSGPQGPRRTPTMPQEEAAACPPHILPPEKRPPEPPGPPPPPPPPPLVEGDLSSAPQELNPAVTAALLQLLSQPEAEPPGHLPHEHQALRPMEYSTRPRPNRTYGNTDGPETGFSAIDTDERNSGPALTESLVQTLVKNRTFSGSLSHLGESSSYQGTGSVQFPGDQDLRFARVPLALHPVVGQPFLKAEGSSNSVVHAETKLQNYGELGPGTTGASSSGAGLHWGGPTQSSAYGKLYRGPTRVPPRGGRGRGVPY
Chain of CDK12 (O75909 whole entry partner): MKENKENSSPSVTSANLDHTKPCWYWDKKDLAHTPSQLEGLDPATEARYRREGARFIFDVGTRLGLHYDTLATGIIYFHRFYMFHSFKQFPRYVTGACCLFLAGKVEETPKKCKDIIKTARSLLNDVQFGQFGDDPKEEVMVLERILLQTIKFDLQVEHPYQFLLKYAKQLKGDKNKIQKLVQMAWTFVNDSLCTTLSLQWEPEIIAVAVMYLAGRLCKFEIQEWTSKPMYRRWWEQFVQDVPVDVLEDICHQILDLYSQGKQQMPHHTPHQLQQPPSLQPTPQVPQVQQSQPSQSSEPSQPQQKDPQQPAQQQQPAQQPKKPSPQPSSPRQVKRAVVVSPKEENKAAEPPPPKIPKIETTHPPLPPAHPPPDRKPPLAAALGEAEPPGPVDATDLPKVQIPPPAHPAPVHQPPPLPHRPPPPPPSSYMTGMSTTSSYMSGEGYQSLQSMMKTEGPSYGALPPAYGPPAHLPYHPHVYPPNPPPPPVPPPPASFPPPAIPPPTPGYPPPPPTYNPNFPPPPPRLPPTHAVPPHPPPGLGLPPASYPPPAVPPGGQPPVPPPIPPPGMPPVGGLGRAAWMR
T1 sequence (Q14004 whole entry): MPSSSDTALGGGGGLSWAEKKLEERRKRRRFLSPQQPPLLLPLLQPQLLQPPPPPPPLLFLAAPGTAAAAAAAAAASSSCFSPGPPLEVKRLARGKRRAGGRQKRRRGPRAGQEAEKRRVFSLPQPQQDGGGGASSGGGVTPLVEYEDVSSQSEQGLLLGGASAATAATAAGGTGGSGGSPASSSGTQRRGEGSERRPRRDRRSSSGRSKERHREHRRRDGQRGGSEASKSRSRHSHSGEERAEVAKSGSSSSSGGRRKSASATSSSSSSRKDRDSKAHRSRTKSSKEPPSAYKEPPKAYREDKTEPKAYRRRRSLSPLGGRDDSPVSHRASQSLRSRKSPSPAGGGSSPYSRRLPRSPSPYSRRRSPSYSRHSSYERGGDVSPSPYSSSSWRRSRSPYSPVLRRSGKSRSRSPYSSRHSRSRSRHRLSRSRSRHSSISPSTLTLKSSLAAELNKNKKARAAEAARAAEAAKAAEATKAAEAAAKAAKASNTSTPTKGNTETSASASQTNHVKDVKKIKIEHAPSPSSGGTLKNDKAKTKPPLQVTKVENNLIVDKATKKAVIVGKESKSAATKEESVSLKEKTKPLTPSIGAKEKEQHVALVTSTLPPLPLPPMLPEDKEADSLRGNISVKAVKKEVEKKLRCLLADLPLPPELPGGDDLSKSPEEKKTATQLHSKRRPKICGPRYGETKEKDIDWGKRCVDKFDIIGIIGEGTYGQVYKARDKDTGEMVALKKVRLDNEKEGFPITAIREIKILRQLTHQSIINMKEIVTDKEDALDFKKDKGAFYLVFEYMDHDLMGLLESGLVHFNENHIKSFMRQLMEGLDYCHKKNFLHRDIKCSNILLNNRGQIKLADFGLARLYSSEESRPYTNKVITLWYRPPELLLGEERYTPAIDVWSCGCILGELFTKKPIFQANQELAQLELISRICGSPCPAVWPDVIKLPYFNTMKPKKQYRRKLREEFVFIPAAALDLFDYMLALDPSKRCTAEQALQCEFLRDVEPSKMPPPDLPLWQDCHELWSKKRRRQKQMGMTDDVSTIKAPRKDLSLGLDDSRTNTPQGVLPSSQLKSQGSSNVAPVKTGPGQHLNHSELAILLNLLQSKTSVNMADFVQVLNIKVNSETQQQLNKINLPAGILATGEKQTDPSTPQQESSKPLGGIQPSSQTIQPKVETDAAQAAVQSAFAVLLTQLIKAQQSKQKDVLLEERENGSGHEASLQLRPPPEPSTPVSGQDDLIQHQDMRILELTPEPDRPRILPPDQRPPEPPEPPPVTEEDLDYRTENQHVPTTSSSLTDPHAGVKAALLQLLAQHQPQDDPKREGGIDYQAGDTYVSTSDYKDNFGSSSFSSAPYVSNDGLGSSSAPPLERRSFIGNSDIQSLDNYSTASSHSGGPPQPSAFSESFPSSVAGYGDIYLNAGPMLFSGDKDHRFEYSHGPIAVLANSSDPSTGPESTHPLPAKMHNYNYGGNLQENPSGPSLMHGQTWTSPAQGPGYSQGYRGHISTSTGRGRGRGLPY
T1 sequence (O75909 whole entry partner): as the sequence (O75909 whole entry partner) above

Protein Degradation (%DMSO control, 0.3 μM) CDK13 [1] [%] | Degradation rates of CDK13 at 0.3 μM [1] [%] | Protein Degradation (%DMSO control, 0.3 μM) CDK12 [2] [%] | Degradation rates of CDK12 at 0.3 μM [2] [%] | SMILES
65 | 65 | 61 | 61 | N#Cc1ccc(N[C@H]2CC[C@H](N(C(=O)NCc3ccccc3)c3ccc(N4CCN(C(=O)C5CCN(c6ccc7c(c6)C(=O)N(C6CCC(=O)NC6=O)C7=O)C5)CC4)cc3)CC2)nc1 (stereo partly drawn) [4b, 3-Benzyl-1-((1r,4r)-4-((5-cyanopyridin-2-yl)amino)cyclohexyl)-1-(4-(4-(1-(2-(2,6-dioxopiperidin-3-yl)-1,3-dioxoisoindolin-5-yl)pyrrolidine-3-carbonyl)piperazin-1-yl)phenyl)urea]
84 | 84 | 74 | 74 | N#Cc1ccc(N[C@H]2CC[C@H](N(C(=O)NCc3ccccc3)c3ccc(N4CCN(CC5CCN(c6ccc7c(c6)C(=O)N(C6CCC(=O)NC6=O)C7=O)CC5)CC4)cc3)CC2)nc1 (stereo partly drawn) [4g, 3-Benzyl-1-((1r,4r)-4-((5-cyanopyridin-2-yl)amino)cyclohexyl)-1-(4-(4-((1-(2-(2,6-dioxopiperidin-3-yl)-1,3-dioxoisoindolin-5-yl)piperidin-4-yl)methyl)piperazin-1-yl)phenyl)urea]
71 | 71 | 49 | 49 | N#Cc1ccc(N[C@H]2CC[C@H](N(C(=O)NCc3ccccc3)c3ccc(N4CCC(CN5CCN(c6ccc7c(c6)C(=O)N(C6CCC(=O)NC6=O)C7=O)CC5)CC4)cc3)CC2)nc1 (stereo partly drawn) [4j, 3-Benzyl-1-((1r,4r)-4-((5-cyanopyridin-2-yl)amino)cyclohexyl)-1-(4-(4-((4-(2-(2,6-dioxopiperidin-3-yl)-1,3-dioxoisoindolin-5-yl)piperazin-1-yl)methyl)piperidin-1-yl)phenyl)urea]
66 | 66 | 42 | 42 | N#Cc1ccc(N[C@H]2CC[C@H](N(C(=O)NCc3ccccc3)c3ccc(N4CCC5(CC4)CCN(c4ccc6c(c4)C(=O)N(C4CCC(=O)NC4=O)C6=O)CC5)cc3)CC2)nc1 (stereo partly drawn) [4p, 3-Benzyl-1-((1r,4r)-4-((5-cyanopyridin-2-yl)amino)cyclohexyl)-1-(4-(9-(2-(2,6-dioxopiperidin-3-yl)-1,3-dioxoisoindolin-5-yl)-3,9-diazaspiro[5.5]undecan-3-yl)phenyl)urea]
70 | 70 | 50 | 50 | N#Cc1ccc(N[C@H]2CC[C@H](N(C(=O)NCc3ccccc3)c3ccc(N4CCN(C[C@@H]5CCN(c6ccc7c(c6)C(=O)N(C6CCC(=O)NC6=O)C7=O)C5)CC4)cc3)CC2)nc1 (stereo partly drawn) [4e, 3-Benzyl-1-((1r,4s)-4-((5-cyanopyridin-2-yl)amino)cyclohexyl)-1-(4-(4-(((3S)-1-(2-(2,6-dioxopiperidin-3-yl)-1,3-dioxoisoindolin-5-yl)pyrrolidin-3-yl)methyl)piperazin-1-yl)phenyl)urea]
64 | 64 | 59 | 59 | N#Cc1ccc(N[C@H]2CC[C@H](N(C(=O)NCc3ccccc3)c3ccc(N4CCN(C[C@H]5CCN(c6ccc7c(c6)C(=O)N(C6CCC(=O)NC6=O)C7=O)C5)CC4)cc3)CC2)nc1 (stereo partly drawn) [4f, 3-Benzyl-1-((1r,4r)-4-((5-cyanopyridin-2-yl)amino)cyclohexyl)-1-(4-(4-(((3R)-1-(2-(2,6-dioxopiperidin-3-yl)-1,3-dioxoisoindolin-5-yl)pyrrolidin-3-yl)methyl)piperazin-1-yl)phenyl)urea]
40 | 40 | 17 | 17 | N#Cc1ccc(N[C@H]2CC[C@H](N(C(=O)NCc3ccccc3)c3ccc(N4CCN(C5CCN(c6ccc7c(c6)C(=O)N(C6CCC(=O)NC6=O)C7=O)C5)CC4)cc3)CC2)nc1 (stereo partly drawn) [4l, 3-Benzyl-1-((1r,4r)-4-((5-cyanopyridin-2-yl)amino)cyclohexyl)-1-(4-(4-(1-(2-(2,6-dioxopiperidin-3-yl)-1,3-dioxoisoindolin-5-yl)pyrrolidin-3-yl)piperazin-1-yl)phenyl)urea]
61 | 61 | 37 | 37 | N#Cc1ccc(N[C@H]2CC[C@H](N(C(=O)NCc3ccccc3)c3ccc(N4CC(CN5CCN(c6ccc7c(c6)C(=O)N(C6CCC(=O)NC6=O)C7=O)CC5)C4)cc3)CC2)nc1 (stereo partly drawn) [4h, 3-Benzyl-1-((1r,4r)-4-((5-cyanopyridin-2-yl)amino)cyclohexyl)-1-(4-(3-((4-(2-(2,6-dioxopiperidin-3-yl)-1,3-dioxoisoindolin-5-yl)piperazin-1-yl)methyl)azetidin-1-yl)phenyl)urea]
76 | 76 | 62 | 62 | N#Cc1ccc(N[C@H]2CC[C@H](N(C(=O)NCc3ccccc3)c3ccc(N4CCN(C5CN(c6ccc7c(c6)C(=O)N(C6CCC(=O)NC6=O)C7=O)C5)CC4)cc3)CC2)nc1 (stereo partly drawn) [4k, 3-Benzyl-1-((1r,4r)-4-((5-cyanopyridin-2-yl)amino)cyclohexyl)-1-(4-(4-(1-(2-(2,6-dioxopiperidin-3-yl)-1,3-dioxoisoindolin-5-yl)azetidin-3-yl)piperazin-1-yl)phenyl)urea]
38 | 38 | 35 | 35 | N#Cc1ccc(N[C@H]2CC[C@H](N(C(=O)NCc3ccccc3)c3ccc(N4CCN(C(=O)C5CN(c6ccc7c(c6)C(=O)N(C6CCC(=O)NC6=O)C7=O)C5)CC4)cc3)CC2)nc1 (stereo partly drawn) [4a, 3-Benzyl-1-((1r,4r)-4-((5-cyanopyridin-2-yl)amino)cyclohexyl)-1-(4-(4-(1-(2-(2,6-dioxopiperidin-3-yl)-1,3-dioxoisoindolin-5-yl)azetidine-3-carbonyl)piperazin-1-yl)phenyl)urea]
47 | 47 | 27 | 27 | N#Cc1ccc(N[C@H]2CC[C@H](N(C(=O)NCc3ccccc3)c3ccc(N4CCC5(CC4)CCN(c4ccc6c(c4)C(=O)N(C4CCC(=O)NC4=O)C6=O)C5)cc3)CC2)nc1 (stereo partly drawn) [4o, 3-Benzyl-1-((1r,4r)-4-((5-cyanopyridin-2-yl)amino)cyclohexyl)-1-(4-(2-(2-(2,6-dioxopiperidin-3-yl)-1,3-dioxoisoindolin-5-yl)-2,8-diazaspiro[4.5]decan-8-yl)phenyl)urea]
71 | 71 | 60 | 60 | N#Cc1ccc(N[C@H]2CC[C@H](N(C(=O)NCc3ccccc3)c3ccc(N4CCN(CC5CN(c6ccc7c(c6)C(=O)N(C6CCC(=O)NC6=O)C7=O)C5)CC4)cc3)CC2)nc1 (stereo partly drawn) [4d, 3-Benzyl-1-((1r,4r)-4-((5-cyanopyridin-2-yl)amino)cyclohexyl)-1-(4-(4-((1-(2-(2,6-dioxopiperidin-3-yl)-1,3-dioxoisoindolin-5-yl)azetidin-3-yl)methyl)piperazin-1-yl)phenyl)urea]
